Source: publication PMC6539903 (Molecules, 2019)
Each block holds one molecule with its values, some of them ahead of it.

Assays:
[1] = biological target: T1, COX-1 (Homo sapiens, UniProt P23219); assay: COX-1 inhibition assay (COX-1 ELISA kit); type: biochemical; conditions: mean of four determinations; read-out: IC50 ± SD COX-1
T1 construct: purchased Cayman Chemical 701170
Procedure: (§1) 3-(4,5-Dimethylthiazol-2-yl)-2,5-diphenyltetrazolium (MTT) were purchased from Beyotime Institute of Biotechnology (Haimen, China). Annexcin V-FITC cell apoptosis assay kit (catalog No.BA11100) was purchased from BIO-BOX (Nanjing, China). Fibronectin (#F1056) and laminin (#L2020) were purchased from Sigma-Aldrich (St. Louis, MO, USA).
(§2) Then 1 M HCl was added to the reaction mixture to stop the reaction, and one-tenth of the volume of saturated stannous chloride (50 mg/mL) was added. The reaction mixture was incubated at room temperature for 5 min, and PGF2 and PGH2 were produced.

[2] = biological target: T2, COX-2 (Homo sapiens, UniProt P35354); assay: COX-2 inhibition assay (COX-2 ELISA kit); type: biochemical; conditions: for Selectivity Index (SI) (COX-1 IC50/COX-2 IC50): in vitro COX-2 selectivity index; for IC50: mean of four determinations, read-out: IC50 ± SD COX-2
T2 construct: purchased Cayman Chemical 701180
T2 sequence (P35354 18-604): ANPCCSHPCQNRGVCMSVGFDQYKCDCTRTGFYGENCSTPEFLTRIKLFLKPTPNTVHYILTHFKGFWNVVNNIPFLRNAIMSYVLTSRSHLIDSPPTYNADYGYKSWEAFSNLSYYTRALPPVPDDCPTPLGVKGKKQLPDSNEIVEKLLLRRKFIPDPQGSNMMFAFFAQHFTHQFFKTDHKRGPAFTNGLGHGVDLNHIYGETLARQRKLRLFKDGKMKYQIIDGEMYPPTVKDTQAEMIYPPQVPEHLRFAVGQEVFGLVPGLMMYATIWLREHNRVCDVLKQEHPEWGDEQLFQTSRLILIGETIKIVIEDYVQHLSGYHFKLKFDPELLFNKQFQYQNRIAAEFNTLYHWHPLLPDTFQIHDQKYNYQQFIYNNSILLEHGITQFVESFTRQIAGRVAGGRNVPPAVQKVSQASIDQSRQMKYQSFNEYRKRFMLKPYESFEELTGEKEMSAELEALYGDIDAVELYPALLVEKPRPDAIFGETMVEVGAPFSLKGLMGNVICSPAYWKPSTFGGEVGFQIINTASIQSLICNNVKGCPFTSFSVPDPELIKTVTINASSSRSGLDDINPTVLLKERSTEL
Procedure: as §1, §2

[3] = test system: SW620 cells; assay: MTT antiproliferation assay, SW620; type: cell-based; conditions: Homo sapiens, SW-620, 48 h, n = 3, read-out: IC50 ± SD SW620
Procedure: (§3) MCF-7 (human breast cell line), HeLa (human cervical cell line), A549 (human lung cell line), HepG2 (human liver cell line), SW620 (human colorectal cell line) and a non-cancer cell line, NCM460 (Human colonic epithelial cells) were preserved at the State Key Laboratory of Pharmaceutical Biotechnology, Nanjing University (Nanjing, China).
(§4) The antiproliferative activity of the synthetic compounds against the SW620, MCF-7, HeLa, A549, HepG2, and NUM460 cell lines was evaluated by a colorimetric assay based on a modified standard (MTT). […] Thereafter, MTT (5 mg/mL in PBS) was added to each well and incubated for 4 h. 150 μL of DMSO was added to each well and shaken with a shaker. The absorbance (OD 570 nm) was read at 630 nm on an ELISA reader (ELx800, BioTek, montpelier, VT, USA). IC50 values for the compounds were calculated by comparison to DMSO treated control wells. Three replicate wells were used for each drug concentration. Each assay was performed three times.

[4] = test system: MCF-7; assay: MTT antiproliferation assay, MCF-7; type: cell-based; conditions: Homo sapiens, MCF7, 48 h, n = 3, read-out: IC50 ± SD MCF-7
Procedure: as §3, §4

[5] = test system: HeLa; assay: MTT antiproliferation assay, HeLa; type: cell-based; conditions: Homo sapiens, 48 h, n = 3, read-out: IC50 ± SD HeLa
Procedure: as §3, §4

[6] = test system: A549; assay: MTT antiproliferation assay, A549; type: cell-based; conditions: Homo sapiens, 48 h, n = 3, read-out: IC50 ± SD A549
Procedure: as §3, §4

[7] = test system: HepG2; assay: MTT antiproliferation assay, HepG2; type: cell-based; conditions: Homo sapiens, 48 h, n = 3, read-out: IC50 ± SD HepG2
Procedure: as §3, §4

[8] = MTT cytotoxicity assay, non-cancer colon cells; type: cell-based; conditions: human, NCM460 colonic epithelial cells (non-cancer cell line), n = 3, non-cancer cell line, read-out: CC50 ± SD NUM460
Procedure: Besides, the MTT assay was performed on a non-cancer line NCM460 to assess the cytotoxicity of the test compound to normal colon cells.
as §3, §4

T1 sequence (P23219 24-599): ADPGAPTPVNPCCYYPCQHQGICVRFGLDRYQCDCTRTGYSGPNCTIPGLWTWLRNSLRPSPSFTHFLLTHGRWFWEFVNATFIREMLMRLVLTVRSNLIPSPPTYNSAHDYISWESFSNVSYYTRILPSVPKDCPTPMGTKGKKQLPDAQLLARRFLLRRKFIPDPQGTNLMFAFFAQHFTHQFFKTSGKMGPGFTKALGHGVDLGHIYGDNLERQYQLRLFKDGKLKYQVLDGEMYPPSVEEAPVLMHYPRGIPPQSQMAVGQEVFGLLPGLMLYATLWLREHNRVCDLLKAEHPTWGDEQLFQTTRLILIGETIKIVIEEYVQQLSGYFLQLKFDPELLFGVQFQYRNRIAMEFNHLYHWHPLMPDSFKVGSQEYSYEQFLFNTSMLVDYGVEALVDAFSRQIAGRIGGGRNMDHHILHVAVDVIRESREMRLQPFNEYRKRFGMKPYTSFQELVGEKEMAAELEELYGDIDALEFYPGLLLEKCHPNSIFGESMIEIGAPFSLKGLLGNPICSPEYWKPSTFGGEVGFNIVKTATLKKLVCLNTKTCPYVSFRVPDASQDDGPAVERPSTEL

SMILES: CCOc1ccc(C2=NN(c3ccc(S(N)(=O)=O)cc3)C(c3ccc4c(c3)OCCO4)C2)cc1 (centres unmarked) [Compound 4n, 4-(5-(2,3-Dihydrobenzo[b][1,4]dioxin-6-yl)-3-(4-ethoxyphenyl)-4,5-dihydro-1H-pyrazol-1-yl)benzenesulfonamide]
IC50 [1]: > 60 µM
Selectivity Index (SI) (COX-1 IC50/COX-2 IC50) [2]: >24.59
IC50 [2]: 2.44 ± 0.19 µM
IC50 [3]: 6.12 ± 0.49 µM
IC50 [4]: 9.88 ± 0.86 µM
IC50 [5]: 11.2 ± 0.86 µM
IC50 [6]: 6.81 ± 0.55 µM
IC50 [7]: 13.5 ± 0.59 µM
CC50 at 48 h [8]: 157 ± 9.98 µM
melting point: 193 to 194 °C

SMILES: NS(=O)(=O)c1ccc(N2N=C(c3ccc(Br)cc3)CC2c2ccc3c(c2)OCCO3)cc1 (centres unmarked) [Compound 4q, 4-(3-(4-Bromophenyl)-5-(2,3-dihydrobenzo[b][1,4]dioxin-6-yl)-4,5-dihydro-1H-pyrazol-1-yl)benzenesulfonamide]
IC50 [1]: 26.64 ± 0.26 µM
Selectivity Index (SI) (COX-1 IC50/COX-2 IC50) [2]: 20.98
IC50 [2]: 1.27 ± 0.03 µM
IC50 [3]: 3.18 ± 0.19 µM
IC50 [4]: 5.47 ± 0.29 µM
IC50 [5]: 5.96 ± 0.39 µM
IC50 [6]: 3.14 ± 0.25 µM
IC50 [7]: 6.92 ± 0.28 µM
CC50 at 48 h [8]: 80.3 ± 8.01 µM
melting point: 153 to 154 °C

SMILES: NS(=O)(=O)c1ccc(N2N=C(c3ccc(I)cc3)CC2c2ccc3c(c2)OCCO3)cc1 (centres unmarked) [Compound 4r, 4-(5-(2,3-Dihydrobenzo[b][1,4]dioxin-6-yl)-3-(4-iodophenyl)-4,5-dihydro-1H-pyrazol-1-yl)benzenesulfonamide]
IC50 [1]: 41.18 ± 0.17 µM
Selectivity Index (SI) (COX-1 IC50/COX-2 IC50) [2]: 47.33
IC50 [3]: 2.17 ± 0.05 µM
IC50 [4]: 3.95 ± 0.18 µM
IC50 [5]: 4.14 ± 0.21 µM
IC50 [6]: 3.12 ± 0.08 µM
IC50 [7]: 3.28 ± 0.17 µM
CC50 at 48 h [8]: 38 ± 1.19 µM
melting point: 187 to 189 °C

SMILES: Cc1cc(C2=NN(c3ccc(S(N)(=O)=O)cc3)C(c3ccc4c(c3)OCCO4)C2)ccc1F (centres unmarked) [Compound 4t, 4-(5-(2,3-Dihydrobenzo[b][1,4]dioxin-6-yl)-3-(4-fluoro-3-methylphenyl)-4,5-dihydro-1H-pyrazol-1-yl)benzenesulfonamide]
IC50 [1]: > 60 µM
Selectivity Index (SI) (COX-1 IC50/COX-2 IC50) [2]: >40.54
IC50 [2]: 1.48 ± 0.02 µM
IC50 [3]: 3.74 ± 0.12 µM
IC50 [4]: 6.31 ± 0.39 µM
IC50 [5]: 6.97 ± 0.51 µM
IC50 [6]: 4.26 ± 0.19 µM
IC50 [7]: 8.94 ± 0.67 µM
CC50 at 48 h [8]: 104 ± 4.74 µM
melting point: 159 to 161 °C

SMILES: COc1cccc(C2=NN(c3ccc(S(N)(=O)=O)cc3)C(c3ccc4c(c3)OCCO4)C2)c1 (centres unmarked) [Compound 4u, 4-(5-(2,3-Dihydrobenzo[b][1,4]dioxin-6-yl)-3-(3-methoxyphenyl)-4,5-dihydro-1H-pyrazol-1-yl)benzenesulfonamide]
IC50 [1]: > 60 µM
Selectivity Index (SI) (COX-1 IC50/COX-2 IC50) [2]: >22.73
IC50 [2]: 2.64 ± 0.17 µM
IC50 [3]: 6.63 ± 0.42 µM
IC50 [4]: 10.6 ± 0.67 µM
IC50 [5]: 12.2 ± 0.85 µM
IC50 [6]: 7.81 ± 0.37 µM
IC50 [7]: 15.3 ± 1.09 µM
CC50 at 48 h [8]: 178 ± 10.7 µM
melting point: 146 to 147 °C

SMILES: NS(=O)(=O)c1ccc(N2N=C(c3cc(F)cc(F)c3)CC2c2ccc3c(c2)OCCO3)cc1 (centres unmarked) [Compound 4w, 4-(3-(3,5-Difluorophenyl)-5-(2,3-dihydrobenzo[b][1,4]dioxin-6-yl)-4,5-dihydro-1H-pyrazol-1-yl)benzenesulfonamide]
IC50 [1]: 55.02 ± 0.36 µM
Selectivity Index (SI) (COX-1 IC50/COX-2 IC50) [2]: 36.44
IC50 [2]: 1.51 ± 0.09 µM
IC50 [3]: 3.78 ± 0.22 µM
IC50 [4]: 6.37 ± 0.39 µM
IC50 [5]: 7.04 ± 0.47 µM
IC50 [6]: 4.34 ± 0.28 µM
IC50 [7]: 9.08 ± 0.71 µM
CC50 at 48 h [8]: 105 ± 8.87 µM
melting point: 182 to 183 °C

SMILES: NS(=O)(=O)c1ccc(N2N=C(c3ccc(F)cc3F)CC2c2ccc3c(c2)OCCO3)cc1 (centres unmarked) [Compound 4z, 4-(3-(2,4-Difluorophenyl)-5-(2,3-dihydrobenzo[b][1,4]dioxin-6-yl)-4,5-dihydro-1H-pyrazol-1-yl)benzenesulfonamide]
IC50 [1]: > 60 µM
Selectivity Index (SI) (COX-1 IC50/COX-2 IC50) [2]: >33.52
IC50 [2]: 1.79 ± 0.13 µM
IC50 [3]: 4.48 ± 0.24 µM
IC50 [4]: 7.42 ± 0.63 µM
IC50 [5]: 8.34 ± 0.69 µM
IC50 [6]: 5.78 ± 0.16 µM
IC50 [7]: 11.7 ± 0.86 µM
CC50 at 48 h [8]: 135 ± 9.63 µM
melting point: 168 to 169 °C

More lines, main results first:

IC50 [1]: 38.41 ± 0.34 µM
Selectivity Index (SI) (COX-1 IC50/COX-2 IC50) [2]: 25.10
IC50 [2]: 1.53 ± 0.12 µM
IC50 [3]: 3.83 ± 0.27 µM
IC50 [4]: 6.44 ± 0.37 µM
IC50 [5]: 7.12 ± 0.69 µM
IC50 [6]: 4.43 ± 0.33 µM
IC50 [7]: 9.24 ± 0.74 µM
melting point: 195 to 196 °C
SMILES: NS(=O)(=O)c1ccc(N2N=C(c3ccc(F)cc3)CC2c2ccc3c(c2)OCCO3)cc1 (centres unmarked) [Compound 4o, 4-(5-(2,3-Dihydrobenzo[b][1,4]dioxin-6-yl)-3-(4-fluorophenyl)-4,5-dihydro-1H-pyrazol-1-yl)benzenesulfonamide]
CC50 at 48 h [8]: 107 ± 9.21 µM

IC50 [1]: 37.32 ± 0.18 µM
Selectivity Index (SI) (COX-1 IC50/COX-2 IC50) [2]: 26.46
IC50 [2]: 1.41 ± 0.07 µM
IC50 [3]: 3.53 ± 0.16 µM
IC50 [4]: 5.99 ± 0.38 µM
IC50 [5]: 6.58 ± 0.49 µM
IC50 [6]: 3.83 ± 0.26 µM
IC50 [7]: 8.16 ± 0.63 µM
melting point: 146 to 148 °C
SMILES: NS(=O)(=O)c1ccc(N2N=C(c3ccc(Cl)cc3)CC2c2ccc3c(c2)OCCO3)cc1 (centres unmarked) [Compound 4p, 4-(3-(4-Chlorophenyl)-5-(2,3-dihydrobenzo[b][1,4]dioxin-6-yl)-4,5-dihydro-1H-pyrazol-1-yl)benzenesulfonamide]
CC50 at 48 h [8]: 94.7 ± 3.65 µM

IC50 [1]: > 60 µM
Selectivity Index (SI) (COX-1 IC50/COX-2 IC50) [2]: >33.33
IC50 [2]: 1.8 ± 0.05 µM
IC50 [3]: 4.54 ± 0.31 µM
IC50 [4]: 7.51 ± 0.47 µM
IC50 [5]: 8.41 ± 0.17 µM
IC50 [6]: 5.86 ± 0.47 µM
IC50 [7]: 11.8 ± 0.59 µM
melting point: 166 to 168 °C
SMILES: Cc1ccc(C2=NN(c3ccc(S(N)(=O)=O)cc3)C(c3ccc4c(c3)OCCO4)C2)cc1C (centres unmarked) [Compound 4s, 4-(5-(2,3-Dihydrobenzo[b][1,4]dioxin-6-yl)-3-(3,4-dimethylphenyl)-4,5-dihydro-1H-pyrazol-1-yl)benzenesulfonamide]
CC50 at 48 h [8]: 137 ± 3.98 µM

IC50 [1]: > 60 µM
Selectivity Index (SI) (COX-1 IC50/COX-2 IC50) [2]: >31.09
IC50 [2]: 1.93 ± 0.08 µM
IC50 [3]: 4.84 ± 0.27 µM
IC50 [4]: 7.96 ± 0.55 µM
IC50 [5]: 8.95 ± 0.39 µM
IC50 [6]: 6.47 ± 0.29 µM
IC50 [7]: 12.9 ± 0.99 µM
melting point: 200 to 201 °C
SMILES: NS(=O)(=O)c1ccc(N2N=C(c3cccc(F)c3)CC2c2ccc3c(c2)OCCO3)cc1 (centres unmarked) [Compound 4v, 4-(5-(2,3-Dihydrobenzo[b][1,4]dioxin-6-yl)-3-(3-fluorophenyl)-4,5-dihydro-1H-pyrazol-1-yl)benzenesulfonamide]
CC50 at 48 h [8]: 150 ± 6.94 µM

IC50 [1]: > 60 µM
Selectivity Index (SI) (COX-1 IC50/COX-2 IC50) [2]: >27.40
IC50 [2]: 2.19 ± 0.21 µM
IC50 [3]: 5.51 ± 0.37 µM
IC50 [4]: 8.96 ± 0.74 µM
IC50 [5]: 10.2 ± 0.72 µM
IC50 [6]: 7.83 ± 0.58 µM
IC50 [7]: 15.4 ± 0.84 µM
melting point: 191 to 192 °C
SMILES: NS(=O)(=O)c1ccc(N2N=C(c3ccccc3F)CC2c2ccc3c(c2)OCCO3)cc1 (centres unmarked) [Compound 4y, 4-(5-(2,3-Dihydrobenzo[b][1,4]dioxin-6-yl)-3-(2-fluorophenyl)-4,5-dihydro-1H-pyrazol-1-yl)benzenesulfonamide]
CC50 at 48 h [8]: 178 ± 12.7 µM
